# In patent US11884693B2, “1,3-acetonedicarboxylate-derived amphipathic compounds and uses thereof” (INDUSTRY-UNIVERSITY COOPERATION FOUNDATION HANYANG …, priority 2022, dated 2024):
# Key:
# [1] = Micelle size by dynamic light scattering (DLS); format: physicochemical; details: micelles at 1.0% by weight
# Description: A method of measuring the radius of the micelles is not particularly limited, but methods widely known in the related art may be used. For example, the radius of the micelles may be measured using a dynamic light scattering (DLS) experiment.
# (§1) To check the characteristics of ACAs synthesized according to the synthesis methods of Examples 1 to 4, critical micelle concentrations (CMCs) of the ACAs and hydrodynamic diameters (DO of the formed micelles were measured.
# (§2) Specifically, the critical micelle concentration (CMC) was measured by fluorescence staining using diphenylhexatriene (DPH), and the hydrodynamic diameters (Dh) of the micelles formed by each of the preparations (1.0% by weight) were measured by means of a dynamic light scattering (DLS) experiment. The measured results are shown in Table 1 in comparison to DDM and octyl glucoside neopentyl glycol (OGNG), two existing amphipathic molecule (detergent).
# In addition, the size distribution of the micelles formed by ACAs was examined by DLS. As a result, it was confirmed that the size of the micelles increased with an increasing length of the alkyl chain. This is because a compound having a cylindrical structure easy for self-assemblage is formed as more carbon is added to the hydrophobic end (FIG. 3).
# [2] = biological target: T1, mouse u-opioid receptor (MOR) (Mus musculus, UniProt P42866); assay: MOR long-term stability, [3H]-diprenorphine ligand binding; format: biochemical; details: 0.1 wt % detergent, 4° C., after 8 hours of incubation
# T1 construct: made in house
# Description: To perform a long-term stability analysis, MOR in 0.1% LMNG was purified. […] MOR in each detergent was incubated for five days at 4° C. and its ligand binding capacity was measured at regular intervals during the incubation. The ligand binding ability of the receptor was measured by adding ˜1 nM of radioactive [^3H]-diprenorphine (DPN). The [^3H]-DPN-containing mixture was immobilized to an anti-flag resin and the resin was collected using GF/B filter paper and scintillation fluid was added into the filter paper. Receptor-bound […] was measured with a scintillation counter (Beckman).
# [3] = Water solubility of the detergents; format: physicochemical
# [4] = Critical micelle concentration by fluorescence staining using diphenylhexatriene (DPH); format: physicochemical; details: aqueous solution
# Description: A method of measuring the CMC is not particularly limited, but a method widely known in the art may be used, and for example, the CMC may be measured by a fluorescent staining method using diphenylhexatriene (DPH).
# as §1, §2
# [5] = biological target: T2, melibiose permease of Salmonella typhimurium (MelBSt) (Salmonella typhimurium, UniProt P30878); assay: MelBSt extraction and thermal solubilization, SDS-PAGE and immunoblotting; format: biochemical; details: 1.5% (w/v) detergent, 90 min incubation at 55° C.
# T2 construct: made in house; host or cells: E. coli DW2 (ΔmelB, ΔlacZY), plasmid pK95ΔΔHB/WT MelBSt/CH10
# Description: Melibiose and other galactoside transporter MelB was produced by E. coli DW2 strain (ΔmelB and ΔlacZY) harboring pK95ΔΔHB/WT MelBSt/CH10 plasmid. The plasmid contains the gene encoding the wild-type melibiose permease of Salmonella typhimurium (MelBSt) with a 10-His tag at the C-terminus. Cell growth and membrane preparation were carried out as described in A. S. Ethayathulla, et al., Nat. Commun. 2014, 5, 3009. Protein assay was carried out with a Micro BCA kit (Thermo Scientific). The membrane samples containing MelBSt (10 mg/mL) in a solubilization buffer (20 mM sodium phosphate, pH 7.5, 200 mM NaCl, 10% glycerol and 20 mM melibiose) were mixed with each individual detergent (ACA-SCs, ACA-ACs and DDM) at 1.5% (w/v). Protein extractions were carried out at 0° C. for 90 min. The protein samples were further incubated at three different temperatures (45, 55, and 65° C.) for 90 min. After extraction and incubation, insoluble fractions were removed by ultracentrifugation at 355,590 g in a Beckman Optima™ MAX Ultracentrifuge using a TLA-100 rotor for 45 min at 4° C. […] membrane proteins without ultracentrifugation and detergent extracts after the ultracentrifugation with the same volume were loaded for analysis by SDS-15% PAGE, and immunoblotting with a HisProbe-HRP antibody (Thermo Scientific) was conducted for visualizing the MelBSt.
# T2 sequence (P30878 whole entry): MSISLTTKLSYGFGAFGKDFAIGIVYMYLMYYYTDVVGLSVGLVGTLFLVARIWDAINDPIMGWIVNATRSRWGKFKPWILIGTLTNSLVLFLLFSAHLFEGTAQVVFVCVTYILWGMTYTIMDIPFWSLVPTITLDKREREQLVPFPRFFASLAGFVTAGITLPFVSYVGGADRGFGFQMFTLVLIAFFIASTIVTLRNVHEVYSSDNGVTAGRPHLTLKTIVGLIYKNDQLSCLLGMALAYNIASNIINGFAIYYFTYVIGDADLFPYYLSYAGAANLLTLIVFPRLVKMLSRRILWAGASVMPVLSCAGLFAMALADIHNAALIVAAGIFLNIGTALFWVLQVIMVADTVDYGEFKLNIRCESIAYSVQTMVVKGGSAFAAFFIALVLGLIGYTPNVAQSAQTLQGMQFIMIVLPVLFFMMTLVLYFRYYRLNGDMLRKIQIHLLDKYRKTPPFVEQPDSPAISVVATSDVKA
# T1 sequence (P42866 whole entry): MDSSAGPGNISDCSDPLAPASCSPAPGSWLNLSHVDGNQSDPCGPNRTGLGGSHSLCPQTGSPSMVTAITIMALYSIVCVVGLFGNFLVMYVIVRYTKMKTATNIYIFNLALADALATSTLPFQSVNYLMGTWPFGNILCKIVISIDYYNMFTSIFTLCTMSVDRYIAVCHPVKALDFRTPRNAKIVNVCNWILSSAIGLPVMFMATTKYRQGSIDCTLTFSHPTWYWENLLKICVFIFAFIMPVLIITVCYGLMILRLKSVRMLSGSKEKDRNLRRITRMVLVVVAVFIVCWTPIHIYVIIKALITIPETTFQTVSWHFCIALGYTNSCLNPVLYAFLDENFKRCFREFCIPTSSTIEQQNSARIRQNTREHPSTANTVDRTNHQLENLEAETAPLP
Structure (SMILES),Rh (nm) [1],Solubility (% by weight) [3],CMC [4],CMC (% by weight) [4],residual activity of MOR [2],MelBSt solubilization ability [5]
"CCCCCCCCCCCCO[C@@H]1O[C@H](CO)[C@@H](O[C@H]2O[C@H](CO)[C@@H](O)[C@H](O)[C@H]2O)[C@H](O)[C@H]1O [DDM, n-dodecyl-β-D-maltopyranoside, reference compound]",3.4 ± 0.3 nm,>10 % by weight,0.17 mM,0.0087 % by weight,10%,
CCCCCCCCCCC(CCCCCCCCCC)(COC1OC(CO)C(O)C(O)C1O)C(CCOC1OC(CO)C(O)C(O)C1O)OC1OC(CO)C(O)C(O)C1O (mixture of isomers) [ACA-AC10],2.7 ± 0.2 nm,>10 % by weight,~0.019 mM,~0.0017 % by weight,,
CCCCCCCCCCCC(COC1OC(CO)C(O)C(O)C1O)C(OC1OC(CO)C(O)C(O)C1O)C(CCCCCCCCCCC)COC1OC(CO)C(O)C(O)C1O (mixture of isomers) [ACA-SC11],2.9 ± 0.3 nm,~10 % by weight,~0.010 mM,~0.0009 % by weight,,approximately 60%
CCCCCCCCCCCCC(CCCCCCCCCCCC)(COC1OC(CO)C(O)C(O)C1O)C(CCOC1OC(CO)C(O)C(O)C1O)OC1OC(CO)C(O)C(O)C1O (mixture of isomers) [ACA-AC12],8.9 ± 0.7 nm,~9 % by weight,~0.012 mM,~0.0011 % by weight,,
CCCCCCCCCCCC(CCCCCCCCCCC)(COC1OC(CO)C(O)C(O)C1O)C(CCOC1OC(CO)C(O)C(O)C1O)OC1OC(CO)C(O)C(O)C1O (mixture of isomers) [ACA-AC11],3.3 ± 0.2 nm,~10 % by weight,~0.014 mM,~0.0013 % by weight,,approximately 70%

# Now from value to compound, other results behind:
Rh (nm) [1],Solubility (% by weight) [3],CMC [4],CMC (% by weight) [4],Structure (SMILES),residual activity of MOR [2],MelBSt solubilization ability [5]
4.4 ± 0.3 nm,>10 % by weight,~1.0 mM,~0.058 % by weight,"CCCCCCC(CCCCCC)(CO[C@@H]1O[C@H](CO)[C@@H](O)[C@H](O)[C@H]1O)CO[C@@H]1O[C@H](CO)[C@@H](O)[C@H](O)[C@H]1O [OGNG, octyl glucoside neopentyl glycol, reference compound]",,
8.3 ± 0.1 nm,~10 % by weight,~0.007 mM,~0.0007 % by weight,CCCCCCCCCCCCC(COC1OC(CO)C(O)C(O)C1O)C(OC1OC(CO)C(O)C(O)C1O)C(CCCCCCCCCCCC)COC1OC(CO)C(O)C(O)C1O (mixture of isomers) [ACA-SC12],,
13.9 ± 1.1 nm,~5 % by weight,~0.005 mM,~0.0005 % by weight,CCCCCCCCCCCCCC(COC1OC(CO)C(O)C(O)C1O)C(OC1OC(CO)C(O)C(O)C1O)C(CCCCCCCCCCCCC)COC1OC(CO)C(O)C(O)C1O (mixture of isomers) [ACA-SC13],,
